Test results: patent US11285135B2 (AMGEN INC., priority 2016, dated 2022)
Read-outs that look alike come from different tables or passages of the source.

Assays:
[1] = test system: Phosphorylation of ERK½ in MIA PaCa-2 cells; assay: Phospho-ERK½ MSD Assay in MIA PaCa-2 cells; assay type: cell-based; conditions: 4 hours compound treatment, 10 ng/mL EGF for 10 min, read-out: p-ERK IC50 (MIA PaCa-2)
Method: (§1) Phospho-ERK½ MSD Assay: MIA PaCa-2 (ATCC® CRL-1420™) and A549 (ATCC® CCL-185™) cells were cultured in RPMI 1640 Medium (ThermoFisher Scientific 11875093) containing 10% fetal bovine serum (ThermoFisher Scientific 16000044) and 1× penicillin-streptomycin-glutamine (ThermoFisher Scientific 10378016). Sixteen hours prior to compound treatment, MIA PaCa-2 or A549 cells were seeded in 96-well cell culture plates at a density of 25,000 cells/well and incubated at 37° C., 5% CO2. A compound dose-response titration was diluted in growth media, added to appropriate wells of a cell culture plate, and then incubated at 37° C., 5% CO2 for 4 hours. Following compound treatment, cells were stimulated with 10 ng/mL EGF (Roche 11376454001) for 10 min, washed with ice-cold Dulbecco's phosphate-buffered saline, no Ca^2+ or Mg^2+ (ThermoFisher Scientific 14190144), and then lysed in RIPA buffer (50 mM Tris-HCl pH 7.5, 1% Igepal, 0.5% sodium deoxycholate, 150 mM NaCl, and 0.5% sodium dodecyl sulfate) containing protease inhibitors (Roche 4693132001) and phosphatase inhibitors (Roche 4906837001). Cell lysates were stored frozen at −80° C. overnight. Phosphorylation of ERK½ in compound-treated lysates was assayed using Phospho-ERK½ Whole Cell Lysate kits (Meso Scale Discovery K151DWD) according to the manufacturer's protocol. Assay plates were read on a Meso Scale Discovery Sector Imager 6000, and data were analyzed using a 4-parameter logistic model to calculate IC50 values.

[2] = target: GDP-bound protein (aa 1-169), containing both G12C and C118A amino acid substitutions (Homo sapiens, UniProt P01116, C118A/G12C); assay: Coupled Nucleotide Exchange Assay (SOS-mediated nucleotide exchange, AlphaScreen); assay type: biochemical; conditions: 2 hours compound pre-incubation
Method: Coupled Nucleotide Exchange Assay: Purified GDP-bound […] protein (aa 1-169), containing both G12C and C118A amino acid substitutions and an N-terminal His-tag, was pre-incubated with a compound dose-response titration for 2 hours in assay buffer (25 mM HEPES pH 7.4, 10 mM MgCl2, and 0.01% Triton X-100). Following compound pre-incubation, purified SOS protein (aa 564-1049) and GTP (Roche 10106399001) were added to the assay wells and incubated for an additional hour. […] The assay plates were then read on a PerkinElmer EnVision Multilabel Reader, using AlphaScreen® technology, and data were analyzed using a 4-parameter logistic model to calculate IC50 values.

[3] = test system: Phosphorylation of ERK½ in A549 cells; assay: Phospho-ERK½ MSD Assay in A549 cells; assay type: cell-based; conditions: 4 hours compound treatment, 10 ng/mL EGF for 10 min, read-out: p-ERK IC50 (A549)
Method: as §1

[4] = Homo sapiens, MIA PaCa-2, MIA PaCa-2 cells

Sequence of GDP-bound protein (aa 1-169), containing both G12C and C118A amino acid substitutions (P01116 1-169 isoform P01116-2 G12C/C118A): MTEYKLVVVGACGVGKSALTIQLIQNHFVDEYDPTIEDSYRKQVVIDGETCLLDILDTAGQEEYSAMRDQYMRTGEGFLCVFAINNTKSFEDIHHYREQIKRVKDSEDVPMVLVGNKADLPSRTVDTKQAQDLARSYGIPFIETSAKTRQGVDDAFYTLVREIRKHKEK

SMILES	Coupled exchange IC50 [2] [µM]	further results
C=CC(=O)N1CCN(c2nc(=O)n(-c3ccccc3C(C)C)c3cc(-c4c(C)ccc5[nH]ncc45)c(Cl)cc23)CC1 (single isomer, unassigned) [Example 11-1-1, 6-chloro-7-(5-methyl-1H-indazol-4-yl)-1-(2-(2-propanyl)phenyl)-4-(4-(2-propenoyl)-1-piperazinyl)-2(1H)-quinazolinone]	0.231	IC50 ([1]; MIA PaCa-2 cells): 247 nM; IC50 ([3]; Homo sapiens, A549, A549 cells): 42.9 µM
C=CC(=O)N1CCN(c2snc3c(F)c(-c4cc(O)cc5ccccc45)c(Cl)cc23)[C@@H](CO)C1 [Example 1-15]	0.562	IC50 [1, 4]: 4700 nM; IC50 ([3]; Homo sapiens, A549, A549 cells): > 100 µM
C=CC(=O)N1C[C@@H](C)N(c2snc3c(F)c(-c4cc(O)cc5ccccc45)c(Cl)cc23)[C@H](C)C1 (racemic) [Example 2-7, 1-(4-(5-chloro-7-fluoro-6-(3-hydroxy-1-naphthalenyl)-2,1-benzothiazol-3-yl)-3,5-dimethyl-1-piperazinyl)-2-propen-1-one]	1.08	IC50 [1, 4]: 3870 nM; IC50 ([3]; Homo sapiens, A549, A549 cells): > 33.3 µM
C=CC(=O)N1CCN(c2nc(=O)n(-c3ccncc3C3CC3)c3cc(-c4c(O)cccc4F)c(Cl)cc23)[C@@H](C)C1 (single isomer, unassigned) [Example 9-7-2]		IC50 ([1]; MIA PaCa-2 cells): 237 nM; IC50 ([3]; A549 cells): 62 µM
C=CC(=O)N1CCN(c2snc3cc(-c4cc(O)cc5ccccc45)c(Cl)cc23)CC1 [Example 1-3]		IC50 [1, 4]: 3840 nM; IC50 ([3]; Homo sapiens, A549, A549 cells): > 100 µM
C=CC(=O)N1CCN(c2snc3c(F)c(-c4cc(O)ccc4F)c(Cl)cc23)CC1 [Example 1-28, 1-(4-(5-chloro-7-fluoro-6-(2-fluoro-5-hydroxyphenyl)benzo[c]isothiazol-3-yl)piperazin-1-yl)prop-2-en-1-one]	2.20	IC50 ([3]; Homo sapiens, A549, A549 cells): > 100 µM
C=CC(=O)N1CCN(c2nc(=O)n(-c3ccncc3C3CC3)c3cc(-c4c(O)cccc4F)c(Cl)cc23)[C@@H](C)C1 (single isomer, unassigned) [Example 9-7-1]		IC50 ([1]; MIA PaCa-2 cells): 23 nM; IC50 ([3]; A549 cells): 14.9 µM
C=CC(=O)N1[C@@H]2CC[C@H]1CN(c1snc3c(F)c(-c4cc(O)cc5ccccc45)c(Cl)cc13)C2 [Example 1-17, 1-((1R,5S)-3-(5-chloro-7-fluoro-6-(3-hydroxy-1-naphthalenyl)-2,1-benzothiazol-3-yl)-3,8-diazabicyclo[3.2.1]octan-8-yl)-2-propen-1-one]	63.5	
C=C(CCO)C(=O)N1CCN(c2snc3c(F)c(-c4cc(O)cc5ccccc45)c(Cl)cc23)CC1 [Example 20, 1-(4-(5-chloro-7-fluoro-6-(3-hydroxy-1-naphthalenyl)-2,1-benzothiazol-3-yl)-1-piperazinyl)-4-hydroxy-2-methylidene-1-butanone]	78.8	
C=CC(=O)N1CCN(c2nnc(N3CCCCC3)c3cc(-c4c(O)cccc4F)c(Cl)cc23)CC1 [Example 15, 1-(4-(7-Chloro-6-(2-fluoro-6-hydroxyphenyl)-4-(1-piperidinyl)-1-phthalazinyl)-1-piperazinyl)-2-propen-1-one]	2.56	
C=CC(=O)N1CCN(c2nnc(OC)c3cc(Cl)c(-c4c(O)cccc4F)cc23)CC1 (single isomer, unassigned) [Example 33, 2-(4-(4-acryloyl-1-piperazinyl)-7-chloro-1-methoxy-6-phthalazinyl)-3-fluorophenol]	103	
C=CC(=O)N1CCN(c2snc3c(F)c(-c4cc(O)cc5ncccc45)c(Cl)cc23)CC1 [Example 21, 1-(4-(5-chloro-7-fluoro-6-(7-hydroxy-5-quinolinyl)-2,1-benzothiazol-3-yl)-1-piperazinyl)-2-propen-1-one]	9.41	
C=CC(=O)N1CCN(c2snc3nc(-c4c(F)cccc4OC)c(Cl)cc23)C(C)C1 (racemic) [Example 2-2, 1-(4-(5-chloro-6-(2-fluoro-6-methoxyphenyl)[1,2]thiazolo[3,4-b]pyridin-3-yl)-3-methyl-1-piperazinyl)-2-propen-1-one]	12.7	
C=CC(=O)N[C@@H]1CN(c2snc3c(F)c(-c4cc(O)cc5ccccc45)c(Cl)cc23)[C@@H]1C (racemic) [Example 1-9, N-(1-(5-chloro-7-fluoro-6-(3-hydroxy-1-naphthalenyl)-2,1-benzothiazol-3-yl)-2-methyl-3-azetidinyl)-2-propenamide]	5.92	
C=CC(=O)N1CCN(c2nc(=O)n(-c3ccccc3C(C)C)c3nc(-c4c(O)cccc4F)c(Cl)cc23)CC1 [Example 8-2, 6-chloro-7-(2-fluoro-6-hydroxyphenyl)-1-(2-(2-propanyl)phenyl)-4-(4-(2-propenoyl)-1-piperazinyl)pyrido[2,3-d]pyrimidin-2(1H)-one]		IC50 [1, 4]: 50 nM; IC50 ([3]; Homo sapiens, A549, A549 cells): > 100 µM

Second part, led by results:

Coupled exchange IC50 [2] [µM]	SMILES	further results
4.03	C=CC(=O)N1CCN(c2snc3c(F)c(-c4cc(N)cc(F)c4F)c(Cl)cc23)CC1 [Example 3-15, 1-(4-(6-(5-amino-2,3-difluorophenyl)-5-chloro-7-fluoro-2,1-benzothiazol-3-yl)-1-piperazinyl)-2-propen-1-one]	IC50 [1, 4]: 20100 nM; IC50 ([3]; Homo sapiens, A549, A549 cells): > 100 µM
15.1	C=CC(=O)N1CCN(c2nnc(Cl)c3cc(-c4c(O)cccc4F)c(Cl)cc23)CC1 [Example 10-13, 1-(4-(4,7-dichloro-6-(2-fluoro-6-hydroxyphenyl)-1-phthalazinyl)-1-piperazinyl)-2-propen-1-one]	
14.2	C=CC(=O)NC1(CO)CN(c2snc3c(F)c(-c4cc(O)cc5ccccc45)c(Cl)cc23)C1 [Example 5-3, N-(1-(5-chloro-7-fluoro-6-(3-hydroxy-1-naphthalenyl)-2,1-benzothiazol-3-yl)-3-(hydroxymethyl)-3-azetidinyl)-2-propenamide]	
15.2	C=CC(=O)N1CCN(c2snc3c(F)c(-c4cc(OC)cc5cnn(C)c45)c(Cl)cc23)CC1 [Example 19-1, 1-(4-(5-chloro-7-fluoro-6-(5-methoxy-1-methyl-1H-indazol-7-yl)-2,1-benzothiazol-3-yl)-1-piperazinyl)-2-propen-1-one]	
6.49	C=CC(=O)N1CCN(c2snc3c(F)c(-c4cc(NC(C)=O)ccc4C)c(Cl)cc23)CC1 [Example 3-13, N-(3-(5-chloro-7-fluoro-3-(4-(2-propenoyl)-1-piperazinyl)-2,1-benzothiazol-6-yl)-4-methylphenyl)acetamide]	
115	C=CC(=O)N1CCN(c2snc3c(F)c(-c4cc(O)cc5cn(C)nc45)c(Cl)cc23)CC1 [Example 19-3, 1-(4-(5-chloro-7-fluoro-6-(5-hydroxy-2-methyl-2H-indazol-7-yl)-2,1-benzothiazol-3-yl)-1-piperazinyl)-2-propen-1-one]	
32.0	C=CC(=O)N1CCN(c2snc3c(F)c(-c4cnccc4C(C)C)c(Cl)cc23)CC1 [Example 3-21, 1-(4-(5-chloro-7-fluoro-6-(4-(2-propanyl)-3-pyridinyl)-2,1-benzothiazol-3-yl)-1-piperazinyl)-2-propen-1-one]	
177	C=CC(=O)N1CCC[C@@H](Nc2snc3c(F)c(Br)c(Cl)cc23)C1 [Example 4-8, 1-((3R)-3-((6-bromo-5-chloro-7-fluoro-2,1-benzothiazol-3-yl)amino)-1-piperidinyl)-2-propen-1-one]	
24.6	C=C(CO)C(=O)N1CCN(c2snc3c(F)c(-c4cc(O)cc5ccccc45)c(Cl)cc23)CC1 [Example 18-3, 1-(4-(5-chloro-7-fluoro-6-(3-hydroxy-1-naphthalenyl)-2,1-benzothiazol-3-yl)-1-piperazinyl)-2-(hydroxymethyl)-2-propen-1-one]	
125	C=CC(=O)N1CC(Nc2snc3c(F)c(Br)c(Cl)cc23)C1 [Example 4-7, 1-(3-((6-bromo-5-chloro-7-fluoro-2,1-benzothiazol-3-yl)amino)-1-azetidinyl)-2-propen-1-one]	
